Ends that are not written are not given here.
What was measured:
Format in all cases: cell-based, humains
[1] = tested on: substance P; test: Substance P release by sensory neurons derived from human pluripotent stem cells, stimulated with veratridine (ELISA)
From the text: Le but de cette étude est d'évaluer les propriétés modulatrices d'un extrait de Cistus monspeliensis dans l'inflammation neurogène cutanée.
Pour se faire, les inventeurs ont développé une approche expérimentale in vitro. Un modèle original de neurones sensoriels humains a été développé après une reprogrammation cellulaire de cellules souches pluripotentes humaines. Ce modèle permet d'étudier les propriétés inhibitrices de la libération de la substance P par les composés à tester, étudié après la stimulation. Ce neuropeptide, la substance P, étant le principal neuromédiateur impliqué dans les voies de la sensibilisation dans l'inflammation neurogène, la douleur et le prurit.
L'étape initiale est la reprogrammation de cellules souches pluripotentes humaines par l'utilisation successive de différents cocktails de facteurs de croissance.
Les caractérisations phénotypiques et morphologiques ont permis de vérifier le pattern des neurones sensoriels avec notamment l'expression des récepteurs spécifiques tels que TrKA, 5HT-2, P2RX3 ou des canaux tels que TRPV1, Nav1.7, Nav1.8, TRPM8 avec une colocalisation avec des marqueurs neuronaux (Tuj1, Brn3A). Ces caractérisations permettent d'établir une durée de reprogrammation pour atteindre un pattern optimal qui est entre J40 et J47 après le début des traitements avec le cocktail des facteurs de croissance.
L'essai est réalisé sur le modèle de neurones sensoriels en culture dans un mélange de milieu (RPMI/N2/B27/Glutamax) en absence (conditions contrôle) ou en présence (groupes traités) des produits à tester. Ces deux conditions sont testées en présence de Vératridine ou en son absence. […] Les niveaux du neuropeptide qu'est la substance P sont quantifiés dix minutes après l'ajout de Veratridine. […]
La substance P libérée est mesurée dans les milieux d'incubation du groupe non traité (contrôle) et des groupes traités après ou non la stimulation de Vératridine. Elle est quantifiée par ELISA selon les instructions du fournisseur. […]

[2] = molecular target: T1, PAR-2 (Homo sapiens, UniProt P55085); test: Aequorin test, agonist activity on recombinant PAR-2; details: reference agonist for PAR-2; read-out: CE50 (the source's name)
T1 construct: expressed in transfected cells; host or cells: CHO-K1 mt aequorin (parental line named; inferred to be the host of the recombinant cells)
T1 sequence (P55085 26-397): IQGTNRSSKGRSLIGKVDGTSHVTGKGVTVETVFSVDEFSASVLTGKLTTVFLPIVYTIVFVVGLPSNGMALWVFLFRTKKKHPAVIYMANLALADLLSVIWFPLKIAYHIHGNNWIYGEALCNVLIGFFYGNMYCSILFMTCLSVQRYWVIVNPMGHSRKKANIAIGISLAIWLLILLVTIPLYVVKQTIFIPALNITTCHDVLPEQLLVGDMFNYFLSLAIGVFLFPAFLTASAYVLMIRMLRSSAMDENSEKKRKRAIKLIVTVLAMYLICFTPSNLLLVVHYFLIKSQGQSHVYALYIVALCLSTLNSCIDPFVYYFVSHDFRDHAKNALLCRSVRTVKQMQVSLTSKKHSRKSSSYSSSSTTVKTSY
From the text: Les inventeurs ont évalué les effets d'un extrait de Cistus monspeliensis sur deux cibles étroitement reliées au prurit, PAR-2 et MRGPRX2.
Les PAR-2 sont des récepteurs couplés aux protéines G. PAR-2 module les réponses inflammatoires, joue un rôle dans l'obésité, le métabolisme et les cancers. PAR-2 agit comme un senseur pour des enzymes protéolytiques générées pendant l'infection. PAR-2 serait retrouvé dans les kératinocytes épidermiques au niveau de la couche stratum granulosum. Des PAR-2 fonctionnels sont également exprimés dans plusieurs types de cellules immunitaires, telles que les éosinophiles, les neutrophiles, les monocytes, les macrophages, les cellules dendritiques, les mastocytes et les cellules T. Le PAR-2 est activé par clivage protéolytique par la tryptase qui est la protéase principale des cellules mastocytaires et la kallikréine qui est impliquée dans des processus inflammatoires et d'homéostasie épidermique. De plus, le clivage protéolytique de PAR-2 induit une signalisation calcique s'il est exprimé dans les neurones participant à la voie afférente. L'activation de MRGPRX2 ([…] G-Protein coupled Receptor) entraine une dégranulation des cellules mastocytaires avec par la suite des réactions pseudo-allergiques. […]

[3] = tested on: IL-17; test: IL-17 release by isolated, amplified Th17 lymphocytes stimulated with anti-CD3/anti-CD28 beads (ELISA)
From the text: (§1) Le but de cette étude est d'évaluer l'activité potentielle d'un extrait de Cistus monspeliensis selon l'invention pour moduler la production de cytokines impliquées dans le psoriasis et la dermatite atopique. Pour se faire, des lymphocytes Th17 isolés et amplifiés à partir du sang circulant de donneurs sont utilisés comme modèle in vitro d'immunopathogénèse du psoriasis. […]
(§2) Les lymphocytes T sont triés à partir de cellules sanguines récupérées de poches de sang fournies par l'Etablissement Français du sang, pour obtenir le phénotype suivant : CD4+ CD45RA- CXCR3- CCR6+. Le nombre de lymphocytes Th17 ainsi obtenu est augmenté par une mise en culture de ces cellules en présence d'un mélange de cytokines (IL-2, anti-TNFα et anti-INFγ) pendant deux semaines.
(§3) Le test est réalisé sur des lymphocytes Th17 humains isolés et amplifiés en absence (conditions contrôle) ou en présence (traité) des composés à tester et sont stimulés ou non par les facteurs de stimulation anti-CD3/anti-CD28.
(§4) Les teneurs des cytokines pro-inflammatoires de Th17 (IL-17 et IL-22) sont quantifiées 24h après la stimulation.
(§5) Les lymphocytes sont traités avec les composés à tester 30 minutes avant la stimulation et pendant 24 heures.
(§6) La Nicardipine, bloqueur des canaux calciques non-sélectifs a été testée (10 µg/ml), solubilisée également dans le DMSO, est utilisée comme contrôle positif. […]

[4] = tested on: IL-22; test: IL-22 release by isolated, amplified Th17 lymphocytes stimulated with anti-CD3/anti-CD28 beads (ELISA)
From the text: as §1, §2, §3, §4, §5, §6

[5] = 10µg/ml, Th17 stimulated anti-CD3/anti-CD28, 24h

CCN(CC)CC(=O)Nc1c(C)cccc1C [Lidocaïne, lidocaïne]
substance P, Données brutes Moyenne ([1]; 100µM, under Vératridine 3µM stimulation): 34,76 pg/ml
libération de substance P (result in words) ([1]; 100µM, under Vératridine stimulation): réduit significativement la libération de substance P

SLIGRL-NH2 [SLIGRL-NH2]
EC50 [2]: 524 nM

COc1ccc(C(=O)O[C@H]2CC[C@@]3(C)[C@@H]4CC[C@H]5[C@]6(O)C[C@H](O)[C@@]7(O)[C@@H](CN8C[C@@H](C)CC[C@H]8[C@@]7(C)O)[C@]6(O)C[C@@]53O[C@]24O)cc1OC [Vératridine]
substance P, Données brutes Moyenne ([1]; Vératridine 3µM alone (stimulus), 10 minutes): 96,26 pg/ml

COC(=O)C1=C(C)NC(C)=C(C(=O)OCCN(C)Cc2ccccc2)C1c1cccc([N+](=O)[O-])c1 (centres unmarked) [Nicardipine]
IL-17 (moyenne) [3, 5]: 721 pg/mL
inhibition at 10 µg/mL ([3]; Lymphocyte): 43%
IL-22 (moyenne) [4, 5]: 440 pg/mL
inhibition at 10 µg/mL ([4]; Lymphocyte): 37%

From patent publication EP4194000A1, “CISTUS MONSPELIENSIS EXTRACT AND COMPOSITIONS COMPRISING SAME FOR SKIN SOOTHING” (Pierre Fabre Dermo-Cosmétique, priority 2021, dated 2023)
